Columns and labels:
[1] = test system: HL-60 human leukemic cells; experiment: In vitro cytotoxicity in HL-60 cells, MTT assay (Table 2); format: cell-based
Protocol: In Table 2, the in vitro cytotoxicity of the various components were determined in HL-60 human leukemic cells using the MTT assay and calculation of IC50 values as described in detail elsewhere. Quinic acid ester content was determined by the Bartos method (Bartos, 1980). […] The quinic acid traveling between Rf=0.2-0.3 was eluted from the TLC plates with 1% aqueous ammonia and the relative quantity estimated by absorption at 200 nm as ± being less than 0.050 and “++++” denoting the highest amount detected, with a decrease in the number of “+” signs corresponding to a decrease in the amount of QA detected.

[2] = Acid and base hydrolysis of QAL and QA measured by Bartos reaction (Table 3); format: physicochemical; settings: 500 μg/test
Source text: To further characterize the QA analogs as the active ingredients in C-MED-100® in vitro, we determined the influence of base hydrolysis on the chemistry and biological activity of C-MED-100®. QAL is in fact a cyclic ester of QA, and as such it is an example representing the general class of QA esters. Elution from silica gel with 1% ammonia were the mandated chemical conditions necessary to remove the QA analog (i.e., active ingredient) from silica gel, which in turn favored the base hydrolysis of QA esters such as QAL to QA. If so, then identification of QA after base hydrolysis from the elution of silica gel, would then be consistent with the natural occurrence in C-MED-100® of a QA ester at Rf=0.2-0.3. […] It is quite clear that either strong acid or base treatment converted QAL to QA, and left only QA remaining, thus supporting the fact that the isolation of QA from C-MED-100® after base elution from silica gel was likely to have been originally present as a QA ester.

[3] = test system: HL-60 W6899 cells; experiment: HL-60 bioassay, microculture 5 days, clonogenicity estimated by MTT assay (Table 1); format: cell-based, human; settings: parameters are approximations
Protocol: An assay of biological activity of C-MED-100®'s active ingredient is prepared as follows: HL-60 […] cells are exposed in microculture at 5000 cells per well (96-well plates) for 5 days at 37 ? C. in a CO2 incubator. After incubation, the cells are washed with saline and clonogenicity estimated by MTT assay.

[4] = test system: IκBα; experiment: Western blotting of IκBα and phosphorylated IκBα in LPS-stimulated 70Z/3 cells; format: cell-based, mouse; settings: QA 2 mg/ml or PDTC 100 μM
Protocol: FIGS. 5C and 5D illustrate 70Z/3 cells (5×10^6) that were pre-treated with QA (2 mg/ml) or with PDTC (100 μM) as a positive control for two hours and thereafter stimulated with LPS (25 μg/ml) for the indicated time. Cytoplasmic extracts equalized for protein concentration were analyzed by western blotting using IκBα-specific antibodies. One representative experiment out of three (FIG. 5C) and one representative experiment out of two (FIG. 5D) are presented.
Preparation of cell extracts: The 70Z/3 cells were pretreated with QA (1 or 2 mg/ml) or with PDTC for 2 hours before they were stimulated with LPS for various time points. Whole cell extracts from the 70Z/3 cells (1×10^6) were prepared for analysis of the NF-κB signaling pathway. The cells were washed twice in PBS, resuspended in lysis buffer (75 mM Tris-HCl (pH 8.0), 100 mM NaCl, 5 mM KCl, 3 mM MgCl2, 2% NP-40, 1 mM PMSF and a protease inhibitor cocktail) (Roche Diagnostics Scandinavia AB) and incubated on ice for 10 min. The cell debris was pelleted and the supernatants were stored at −70° C. until Western Blot was performed.
Western blotting: Cellular extracts from 70Z/3 cells were separated on a 10% SDS polyacrylamide gel and the proteins were transferred to a nylon membrane. After blocking overnight in 5% dry fat-free milk in TBST, the membrane was incubated for 2 hrs with primary antibodies specific either to IκBα or to phosphorylated IκBα (both from Cell Signaling Technology Inc, Beverly, Mass.). The membranes were thereafter washed three times in TBST, and incubated with HRP-conjugated goat anti-rabbit antibodies (Amersham Pharmacia). The membranes were washed three times and chemoluminescence was detected using the ECL-reagent (Amersham Pharmacia) and x-ray film (CEA AB, Strängnäs, Sweden).

[5] = test system: human HL-60 leukemic cells; experiment: In vitro growth inhibition by QA salts in cultured HL-60 cells, MTT, 72 hr (FIG. 8); format: cell-based; settings: HL-60 cells
Protocol: QA was purchased from Sigma (>99%). QA salts were synthesized by neutralization with the appropriate base, i.e., NH4OH, NaOH, Ca(OH)2, Zn(OH)2, LiOH, KOH, lysine or histidine. Serial dilutions of test compounds were added to human HL-60 leukemic cells (0.05×10^6 cells/ml) in 96-well, flat bottomed microtiter plates to give final concentrations in the cultures up to 3000 μg/ml. The plates were incubated for 72 hr at 37 C, pulsed with 20 μl MTT (5 mg/ml) for 3 hr, and the color estimated spectrophotometrically at 540 nm as described previously. (Schweitzer, C M et al. Spectrophotometric determination of clonogenic capacity of leukemic cells in semisolid microtiter culture systems. Experimental Hematology 21: 573-578, 1993). IC50 values were calculated and compared based on the live/dead ratio of cells.

O=C1O[C@@H]2C[C@@]1(O)C[C@@H](O)[C@H]2O [QAL #1 batch syn., quinic acid lactone]
HL-60 MTT IC50 ([1]; no base hydrolysis): 1200 µg/mL

O=C1O[C@@H]2C[C@@]1(O)C[C@@H](O)[C@H]2O [Quinic acid lactone, quinic acid lactone]
HL-60 MTT IC50 ([1]; no base hydrolysis, listed as QAL #2 batch syn.): >2300 µg/mL | HL-60 MTT IC50 ([1]; sample treated +2 M NaOH, 2 hr): 1600 µg/mL | % Degraded (Bartos Reaction A490 nm) ([2]; 1M NaOH): 74.1% | % Degraded (Bartos Reaction A490 nm) ([2]; 1N HCl): 58.2% | Bioassay after 1% aqueous ammonia IC50 HL-60 cells ([3]; after 1% aqueous ammonia): >3000 µg/mL | Bioassay efficacy using IC50 in HL-60 cells [3]: 80 µg/mL

S=C(S)N1CCCC1 [PDTC, pyrollidine dithiocarbamate, reference compound]
phosphorylation of IκBα [4]: potently inhibited | LPS-induced breakdown of IκBα ([4]; 2 h pretreatment): inhibits both the breakdown of IκBα and its resynthesis

O=C([O-])C1(O)CC(O)C(O)[C@H](O)C1.[Na+] (some centres unmarked) [Quinic acid (QA) sodium salt]
HL-60 MTT IC50 ([1]; no base hydrolysis): 1500 µg/mL | in vitro cytotoxicity compared to C-MED-100 (FIG. 8) [5]: in vitro cytotoxicity comparable to that of C-MED-100®
